Tests used:
Assay in all cases: adenylation: pyrophosphate exchange or coupled pyrophosphate release assay
Type in all cases: biochemical
Settings in all cases: adenylation step; ATP
[1] = molecular target: T1, glycyl-tRNA synthetase (GlyRS, class IIC) (Escherichia coli, UniProt P00960)
T1 sequence (P00960 1-303): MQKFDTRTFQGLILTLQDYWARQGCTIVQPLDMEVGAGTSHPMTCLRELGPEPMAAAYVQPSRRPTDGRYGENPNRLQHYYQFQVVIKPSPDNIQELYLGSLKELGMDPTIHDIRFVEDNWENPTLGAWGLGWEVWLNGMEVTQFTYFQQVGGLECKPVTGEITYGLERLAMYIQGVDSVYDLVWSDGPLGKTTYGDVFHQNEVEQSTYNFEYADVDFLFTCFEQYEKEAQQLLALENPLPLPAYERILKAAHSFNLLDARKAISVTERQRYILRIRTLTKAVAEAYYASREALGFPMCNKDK
T1 sequence (P00961 2-689 partner): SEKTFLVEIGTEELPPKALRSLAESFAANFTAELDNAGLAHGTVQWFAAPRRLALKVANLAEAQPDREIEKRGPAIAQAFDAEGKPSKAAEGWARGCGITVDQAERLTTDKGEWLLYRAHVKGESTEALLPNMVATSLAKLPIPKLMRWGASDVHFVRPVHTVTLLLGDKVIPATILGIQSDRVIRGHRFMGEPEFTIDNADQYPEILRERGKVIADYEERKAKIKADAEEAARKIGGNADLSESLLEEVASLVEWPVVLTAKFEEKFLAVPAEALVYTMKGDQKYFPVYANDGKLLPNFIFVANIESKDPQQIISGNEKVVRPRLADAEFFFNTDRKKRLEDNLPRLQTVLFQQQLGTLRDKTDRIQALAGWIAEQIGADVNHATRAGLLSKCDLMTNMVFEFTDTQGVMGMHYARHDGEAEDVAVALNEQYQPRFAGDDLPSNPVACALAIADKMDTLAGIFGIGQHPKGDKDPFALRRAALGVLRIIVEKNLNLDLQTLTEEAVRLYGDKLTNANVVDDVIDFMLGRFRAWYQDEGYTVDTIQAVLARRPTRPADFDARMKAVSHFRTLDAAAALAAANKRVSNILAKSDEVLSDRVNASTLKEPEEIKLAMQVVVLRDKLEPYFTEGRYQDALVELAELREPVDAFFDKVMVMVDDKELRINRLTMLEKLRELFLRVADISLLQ

[2] = molecular target: phenylalanyl-tRNA synthetase (PheRS, class IIC) (Escherichia coli, UniProt P08312)
Sequence of phenylalanyl-tRNA synthetase (PheRS, class IIC) (P08312 whole entry): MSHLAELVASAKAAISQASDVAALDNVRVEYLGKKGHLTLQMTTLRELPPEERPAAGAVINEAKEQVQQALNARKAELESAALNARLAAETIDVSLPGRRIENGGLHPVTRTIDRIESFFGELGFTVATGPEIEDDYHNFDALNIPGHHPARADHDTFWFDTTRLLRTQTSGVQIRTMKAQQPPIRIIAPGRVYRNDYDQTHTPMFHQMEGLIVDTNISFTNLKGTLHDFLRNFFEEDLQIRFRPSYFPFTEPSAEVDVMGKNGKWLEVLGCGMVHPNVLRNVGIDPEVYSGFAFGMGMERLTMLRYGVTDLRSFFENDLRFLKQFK
Sequence of phenylalanyl-tRNA synthetase (PheRS, class IIC) (P07395 whole entry partner): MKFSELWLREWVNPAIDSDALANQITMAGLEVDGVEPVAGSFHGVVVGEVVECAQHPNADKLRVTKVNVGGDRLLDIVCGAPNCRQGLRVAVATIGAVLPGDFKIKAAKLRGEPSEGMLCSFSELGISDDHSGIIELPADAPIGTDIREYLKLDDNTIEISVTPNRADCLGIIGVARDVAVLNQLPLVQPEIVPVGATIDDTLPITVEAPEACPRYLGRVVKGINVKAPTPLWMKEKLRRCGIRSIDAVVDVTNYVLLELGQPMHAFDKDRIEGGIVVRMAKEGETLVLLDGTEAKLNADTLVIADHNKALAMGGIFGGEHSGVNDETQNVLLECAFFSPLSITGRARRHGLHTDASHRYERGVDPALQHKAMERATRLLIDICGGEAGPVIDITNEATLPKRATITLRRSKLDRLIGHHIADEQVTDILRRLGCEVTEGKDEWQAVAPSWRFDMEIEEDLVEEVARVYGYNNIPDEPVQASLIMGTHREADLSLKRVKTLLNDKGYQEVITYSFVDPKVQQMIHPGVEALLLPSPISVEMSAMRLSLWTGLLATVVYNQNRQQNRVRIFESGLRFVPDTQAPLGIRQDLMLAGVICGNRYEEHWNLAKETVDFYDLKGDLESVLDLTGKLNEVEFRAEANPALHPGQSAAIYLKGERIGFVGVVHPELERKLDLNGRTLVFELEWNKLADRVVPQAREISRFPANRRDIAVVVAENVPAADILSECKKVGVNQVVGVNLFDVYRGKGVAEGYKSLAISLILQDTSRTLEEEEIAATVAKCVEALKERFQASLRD

[3] = molecular target: T2, tyrosyl-tRNA synthetase (TyrRS, class IC) (Escherichia coli, UniProt P0AGJ9)
T2 sequence (P0AGJ9 2-424): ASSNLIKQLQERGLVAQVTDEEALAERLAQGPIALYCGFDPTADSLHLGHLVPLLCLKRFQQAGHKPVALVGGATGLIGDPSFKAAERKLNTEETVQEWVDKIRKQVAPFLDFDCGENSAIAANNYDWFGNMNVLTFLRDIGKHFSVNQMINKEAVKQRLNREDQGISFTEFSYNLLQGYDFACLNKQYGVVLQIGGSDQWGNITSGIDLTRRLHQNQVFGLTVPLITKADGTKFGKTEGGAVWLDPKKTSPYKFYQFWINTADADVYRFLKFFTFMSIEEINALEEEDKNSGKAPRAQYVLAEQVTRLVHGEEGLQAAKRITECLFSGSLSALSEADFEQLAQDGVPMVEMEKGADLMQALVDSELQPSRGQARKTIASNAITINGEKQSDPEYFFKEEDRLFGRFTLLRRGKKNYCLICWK

SMILES | KM [1] | KM [2] | also measured
NCCC(=O)O [β^3-Gly] | GlyRS and PheRS (class II) tolerate the expanded β^3-amino acid backbone | – | –
N[C@@H](Cc1ccccc1)C(=O)O [α-Phe] | – | GlyRS and PheRS (class II) tolerate the expanded β^3-amino acid backbone | –
N[C@@H](Cc1ccc(O)cc1)C(=O)O [α-Tyr] | – | – | KM [3]: GluRS and TyrRS (both class I) show the greatest selection against β^3-amino acid substrates
NCC(=O)O [α-Gly] | GlyRS and PheRS (class II) tolerate the expanded β^3-amino acid backbone | – | –
NC(CC(=O)O)Cc1ccccc1 (stereo not drawn) [β^3-Phe] | – | GlyRS and PheRS (class II) tolerate the expanded β^3-amino acid backbone | –
